The record followed here is PMC2941486 (Journal of Biomedical Science, 2010).

Molecules are shown by their SMILES. Marks after values point to notes of the source that are not given here. Square brackets hold non-standard residues; d marks the D form. Peptide text beside a SMILES is read from it. Dopa = N[C@@H](Cc1ccc(O)c(O)c1)C(=O)O; dPhg = N[C@@H](C(=O)O)c1ccccc1

The target of series [1] is T1, intestinal peptide transporter I (PepT1) (Rattus norvegicus, UniProt P51574).
T1 construct: brush-boarder membrane vesicle (BBMV) prepared from rat intestine; from tissue; host or cells: rat intestine, brush-border membrane vesicles made by magnesium precipitation
T1 sequence (P51574 1-710): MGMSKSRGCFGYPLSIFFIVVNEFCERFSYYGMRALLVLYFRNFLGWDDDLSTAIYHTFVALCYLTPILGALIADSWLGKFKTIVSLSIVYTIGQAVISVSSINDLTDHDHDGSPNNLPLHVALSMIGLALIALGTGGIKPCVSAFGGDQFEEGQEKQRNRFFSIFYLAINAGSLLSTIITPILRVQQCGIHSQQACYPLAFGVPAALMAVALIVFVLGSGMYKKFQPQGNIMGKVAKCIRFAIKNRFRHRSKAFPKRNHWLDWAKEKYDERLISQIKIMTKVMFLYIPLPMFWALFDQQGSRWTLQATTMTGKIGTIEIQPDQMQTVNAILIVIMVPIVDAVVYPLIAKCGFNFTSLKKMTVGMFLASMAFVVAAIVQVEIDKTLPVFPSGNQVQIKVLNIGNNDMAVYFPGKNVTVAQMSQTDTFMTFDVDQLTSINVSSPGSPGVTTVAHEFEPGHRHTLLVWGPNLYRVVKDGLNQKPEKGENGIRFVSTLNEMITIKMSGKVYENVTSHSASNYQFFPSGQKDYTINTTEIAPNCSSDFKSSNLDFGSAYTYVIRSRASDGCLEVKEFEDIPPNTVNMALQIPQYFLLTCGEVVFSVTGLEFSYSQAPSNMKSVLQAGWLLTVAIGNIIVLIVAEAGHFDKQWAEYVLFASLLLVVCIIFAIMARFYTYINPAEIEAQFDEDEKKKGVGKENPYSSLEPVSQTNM
Description: BBMV uptake of d-phenylglycine-l-dopa with or without competitors. The format is in vitro ADME. Conditions: pH 7.4, room temperature.

Series [2] in a line: Stability in rat intestinal mucosa suspension. The format is in vitro ADME. Conditions: pH 6.5 isotonic buffer, 37°C. As for the experimental part:
Mucosa suspension was prepared from the intestine of male Wistar rats according to established method and was stored in an ice bath before use.
The stability of d-phenylglycine-l-dopa in the intestine was determined prior to the intestinal absorption studies. In order to simulate intestinal microclimate pH, the compound was incubated with the intestinal mucosal suspension in a pH 6.5 isotonic buffer solution. l-Gly-l-Phe comprising essential amino acids degraded rapidly with only 50% of recovery after 2 min of incubation. d-Phenylglycine-l-dopa, on the other hand, was very stable with almost 100% of recovery after 90 min of incubation (Figure 3).
Figure 3 Comparison of the stability of d-phenylglycine-l-dopa and l-Gly-l-Phe in rat intestinal mucosa suspension. Each point represents mean ± SE. of 3 experiments. A methanolic solution (100 μl) of the test compound (1 mg/ml) was diluted with an isotonic mannitol buffer solution (pH 6.5, 2.4 ml) as the stock solution. This stock solution (1 ml) was mixed with the freshly prepared mucosal suspension (1 ml). The mixture was incubated in a water bath at 37°C and subjected to sampling at intervals between zero to 90 min of incubation. Each sampled solution (200 μl) was denatured with 0.8 ml of MeOH and centrifuged at 6,600 g for 5 min. Each of the supernatant (20 - 100 μl) was subjected to HPLC assay.

Series [3] relates to 6-OHDA-treated unilateral striatal-lesioned rats. Conditions: 10 mg/kg.
Series [4] is described as follows: Pharmacokinetics after i.v. and oral administration. Conditions: for AUC / half-life / clearance / Vd / Tmax: Wistar, rat, plasma, 5.97 mg/kg; for clearance: read-out: Clp; for Vd: read-out: Vdss; for Fraction of absorption (BA): oral vs i.v., Equation 1, rats. Type of series: in vivo, Wistar rats. As for the experimental part: Rats were fasted for at least 18 h prior to drug administration. Anaesthesia was induced by i.p. injection of urethane (0.15 g/100 g body weight). The rats were put under a heating lamp to maintain body temperature.
The HPLC system used in the assay of biological samples consisted of an autosampler (AS950, Jasco, Tokyo, Japan), a Waters Model 600E solvent delivery pump (Millipore, Milford, MA, USA), a Model LC-4C electrochemical detector with a glassy-carbon electrode (Bioanalytical Systems, Inc., West Lafayette, IN, USA), and an integrator (Macintosh LC II with Macintegrator I). A Nucleosil® 10 SA cationic ion-exchange column (10 μm, 300 × 4.0 mm, Macherey-Nagel, Düren, Germany) with a mobile phase comprising NaCl (50 mM) and Na2-EDTA (1.0 mM) in 0.1 M ammonium phosphate buffer (pH 2.0) at a flow rate of 2.0 ml/min was used for the elution of the samples. […] HPLC assay methods were validated by determining the precision and accuracy of intra-day and inter-day analysis of serum standards over a period of 6 days. The coefficients of variation for inter- and intraday assays were less than 15% for both compounds (n = 6).
According to the literature, the area under the plasma concentration-time profile (AUC) was calculated by log-linear trapezoidal rule. Plasma concentration after i.v. administration of drugs were also fitted to a […] model using PCNONLIN and Akeike's Information Criteria, sum of squared residuals, residual plot and correlation coefficient were use for determination of the compartment model. The residual area after the last observed data point was calculated as Clast/k, where Clast is the last observed concentration, and k is the corresponding terminal rate constant. Terminal half-life (t1/2) was estimated compartment model-independently. The fraction of absorption was calculated according to Equation 1.
(1) BA=AUCoral⋅koral/doseoral/AUCiv⋅kiv/doseiv×100%
Blood samples were collected from the carotid artery at time intervals of from 1 to 180 min. Heparin sodium (25 I.U./ml in 0.3 ml of saline) was added to blood samples, and were then centrifuged at 6,600 g for 5 min. Plasma was stored at -78°C until being analyzed. A 200 μl of the plasma sample in a 10 ml test tube was mixed with 500 μl of 1.0 M Tris buffer (pH 8.6, adjusted by EDTA-2Na^+) and 10 μl of 3,4-dihydroxybenzylamine (DHBA, 2 μg/ml) was added as internal standard. Alumina 100 mg was then added and then shake for 15 sec and the supernatant was decanted. The alumina was washed four times with 5 ml of water, and the adsorbed compounds on the alumina was eluted with 200 μl of an acidic solution (0.9 ml of glacial acetic acid in 4.0 ml of 1.0 M phosphate buffer). A 30 μl of the eluent was then analyzed by HPLC.

Series [5] can be described thus: In situ single-pass jejunal perfusion. The format is in vivo, rat. Conditions: for Blood concentration: steady-state plasma concentration after jejunal perfusion, l-dopa detected in only one of three rats. As for the experimental part:
Literature procedure was followed for the preparation of perfusion solutions and the jejunal segments. To maximize the absorption and to prevent the test compounds from being oxidized during perfusion, the experiments were performed at pH 6.0 with 0.02% (w/v) ascorbic acid added as antioxidant and nitrogen gas was bubbled through for 10 min before each experiment. Perfusion solution was pumped through the jejunal segment at a flow rate of 0.2 ml/min by a syringe pump (Stoelting, KD Scientific, U.S.A.). The jejunal segment was pre-washed with drug-free buffer for 10 min before the drug solution was pumped in. Outlet tubing samples were collected every 10 min for 6 collection periods after water and solute transport reached steady-state. The dimensionless membrane permeability Pm* [28] was measured as indications for the disappearance rate of test compound from the intestine. Plasma samples were withdrawn from carotid artery.
The absorption of d-phenylglycine-l-dopa and l-dopa was compared in rats by in situ single-pass jejunal perfusion experiments. Amidon's dimensionless cross-membrane permeability (Pm*) was determined as a parameter of intestinal absorption. The steady-state plasma concentration was also determined (Table 1).

For the next series, the system named is striatal dopamine. Description: Brain microdialysis of striatal dopamine after i.v. injection. Type of series: in vivo, Sprague-Dawley rats. Conditions: after i.v. injection 50 mg/kg. As for the experimental part:
Single dose d-phenylglycine-l-dopa (50 mg/kg in 2.5 mL of normal saline) was administered i. v. via femoral vein to anesthetized male Sprague-Dawley rats (280 - 320 g). The body temperature of the rats was maintained at 37°C with a heating pad throughout the experiment. The rat was immobilized in a stereotaxic frame (David Kopf Instruments, Tujunga, CA, USA), the skull was surgically exposed, and a hole was drilled with a trephine into the skull based on stereotaxic coordinates. The brain microdialysis system consisted of a CMA/100 microinjection pump (CMA, Stockholm, Sweden) and a microdialysis probe. The dialysis probes (3 mm in length) were made of silica capillary in a concentric design with their tips covered by dialysis membrane (Spectrum, 150 μm outer diameter with a cut-off at nominal molecular mass of 13000, Laguna Hills, CA, USA). The probe was placed into right striatum (0.2 mm anterior to bregma and 3.2 mm lateral to midline) and perfused with Ringer's solution (147 mM Na+; 2.2 mM Ca++; 4 mM K+; pH 7.0) at a flow-rate of 1 μl min^-1. The position of each probe was verified at the end of experiments. The dialysates was collected at 10 min intervals and aliquots of 10 μl was assayed by microbore HPLC. […]

The mark [6] stands for this setting: oral, dose equivalent to 5.97 mg/kg l-dopa, rats.

Consider `NCC(=O)N1CCC[C@H]1C(=O)O` [l-Gly-l-Pro] (H-Gly-Pro-OH), for which, in series [1], the “Inhibition of BBMV uptake of d-phenylglycine-l-dopa by added competitor” value (shortened to “Inhibition”) is “significantly inhibited”.

Consider `NCC(=O)N[C@@H](Cc1ccccc1)C(=O)O` [l-Gly-l-Phe, reference compound] (H-Gly-Phe-OH), for which the “Recovery after incubation with intestinal mucosal suspension” value in series [2] (2 min of incubation) is 50%. The “Inhibition” value in series [1] is given as “significantly inhibited”.

Consider `N[C@@H](Cc1ccc(O)c(O)c1)C(=O)O` [l-dopa, reference compound], for which, in series [3], the “Reduction in rotation (mean ± SE %)” value is on record as 9.9 ± 1.4%. Moreover, in series [4] (iv), the AUC was 7660 ng·h/mL, the half-life was 102 ± 27.7 min, the clearance came to 20 ± 20 mL/min/kg and the Vd amounted to 1.22 ± 0.89 L/kg. In series [4] (po), the AUC was 456 ng·h/mL, the Tmax was 25 min and the half-life stood at 185 ± 46.2 min. In series [4], the “Fraction of absorption (BA)” value was 0.87 ± 0.24%. For the same compound, the Clp in series [4] (setting [6]) was 0.01 ± 0.00 L/kg/min. The Blood concentration in series [5] was 1.24^a μg/ml.

On to `N[C@@H](Cc1ccccc1)C(=O)O` [l-Phe], for which the “Inhibition” value in series [1] was “less inhibited”.

As for `CC1=C(C(=O)O)N2C(=O)[C@@H](NC(=O)[C@H](N)C3=CCC=CC3)[C@H]2SC1` [cephradine], the “Inhibition” value in series [1] is “significantly inhibited”.

For the compound `N[C@@H](C(=O)N[C@@H](Cc1ccc(O)c(O)c1)C(=O)O)c1ccccc1` [d-phenylglycine-l-dopa] (H-[dPhg]-[Dopa]-OH), in series [4] (iv), the AUC is 1040 ng·h/mL, the half-life is 254 ± 73 min, the clearance stood at 180 ± 60 mL/min/kg and the Vd was found to be 11 ± 5.08 L/kg. Also, in series [4] (po), the AUC was 481 ng·h/mL, the Tmax is 38.3 min and the half-life came to 142 ± 23.7 min. Moreover, the “Systemic bioavailability (AUC), times lower than that of l-dopa” value in series [4] (i.v., rats) was 7 times. In addition, the “Fraction of absorption (BA)” value in series [4] is on record as 27.58 ± 4.56%. In series [4] (setting [6]), the Clp is 0.29 ± 0.10 L/kg/min and the Vdss was 35.7 ± 17.1 L/kg. Further, in series [4] (rats, oral), the “Fraction of oral absorption, fold higher than that of l-dopa” value turned out to be 31 fold and the “Oral bioavailability, times higher than that of l-dopa” value is 31.7 times. Also, in the series with striatal dopamine, the “Time at which striatal dopamine had not reached plateau” value was greater than 3.5 h. Besides, the Striatal dopamine level entry with striatal dopamine (anesthetized rats, dialysates at 10 min intervals) is recorded as “increased gradually”. Besides, the recovery at 90 min, 0.02 mg/ml in series [2] (male, Wistar, rat, intestinal mucosa suspension, 90 min of incubation, read-out: Recovery after incubation with intestinal mucosal suspension) is roughly 100%. The “Steady-state plasma concentration after perfusion, molar ratio, higher than that of l-dopa” value in series [5] (jejunal perfusion, rats) was found to be 31.1 fold. The same compound returned a Blood concentration in series [5] of 64.6 ± 5.40 µg/mL. The Molar ratio of blood concentration in series [5] (steady-state, jejunal perfusion) came to 31.1.
